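Five concentrations, 48 hours, 96-well plates. Definition used: TGI = concentration required for complete inhibition of growth.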
Tests used:
Assay in all cases: NCI-60 cell line screen, 48 h
[1] = tested on: SF-539 CNS
[2] = tested on: SK-MEL-2 melanoma
[3] = tested on: IGROV1 ovarian
[4] = tested on: MDA-N
[5] = tested on: HCT-116 colon
[6] = tested on: SK-MEL-28 melanoma
[7] = tested on: NCI-H522 lung
[8] = tested on: SN12C renal
[9] = tested on: OVCAR-3 ovarian
[10] = tested on: HT29 colon
[11] = tested on: HOP-62 NSCLC
[12] = tested on: NCI-H23 lung
[13] = tested on: COLO 205 colon
[14] = tested on: K-562 leukemia
[15] = tested on: EKVX NSCLC
[16] = tested on: MDA-MB-435
[17] = tested on: HS 578T breast
[18] = tested on: SNB-19 CNS
[19] = tested on: U251 CNS
[20] = tested on: NCI-H226 lung
[21] = tested on: BT-549 breast
[22] = tested on: MDA-MB-231 breast
[23] = tested on: DU-145 prostate
[24] = tested on: SR leukemia
[25] = tested on: HOP-92 NSCLC
[26] = tested on: SF-268 CNS
[27] = tested on: SF-295 CNS
[28] = tested on: RPMI-8226 leukemia
[29] = tested on: MALME-3M melanoma
[30] = tested on: SW-620 colon
[31] = tested on: SK-MEL-5 melanoma
[32] = tested on: T-47D breast
[33] = tested on: HCT-15 colon
[34] = tested on: MOLT-4 leukemia
[35] = tested on: NCI/ADR-RES ovarian
[36] = tested on: A549 NSCLC
[37] = tested on: UO-31 renal
[38] = tested on: 786-0 renal
[39] = tested on: CAKI-1 renal
[40] = tested on: HL-60(TB) leukemia
[41] = tested on: SNB-75 CNS
[42] = tested on: LOX IMVI melanoma
[43] = tested on: OVCAR-4 ovarian
[44] = tested on: M14 melanoma
[45] = tested on: PC-3 prostate
[46] = tested on: RXF 393 renal
[47] = tested on: HCC-2998 colon
[48] = tested on: SK-OV-3 ovarian
[49] = tested on: MCF7 breast
[50] = tested on: UACC-62 melanoma
[51] = tested on: NCI-H460 lung
[52] = tested on: UACC-257 melanoma
[53] = tested on: KM12 colon
[54] = tested on: OVCAR-8 ovarian
[55] = tested on: OVCAR-5 ovarian
[56] = tested on: TK-10 renal
[57] = tested on: ACHN renal
[58] = tested on: A498 renal
[59] = tested on: CCRF-CEM leukemia

Compound: C[C@]12CC/C(=N\O)C=C1CC[C@@H]1[C@@H]2CC[C@]2(C)C(=N/O)/C(=C/c3ccncc3)C[C@@H]12
- TGI [1]: > 100 µM
- TGI [2]: 34.2 µM
- TGI [3]: > 100 µM
- TGI [4]: > 100 µM
- TGI [5]: 47.4 µM
- TGI [6]: > 100 µM
- TGI [7]: 99.2 µM
- TGI [8]: > 100 µM
- TGI [9]: 72.3 µM
- TGI [10]: 42.1 µM
- TGI [11]: > 100 µM
- TGI [12]: > 100 µM
- TGI [13]: > 100 µM
- TGI [14]: > 100 µM
- TGI [15]: > 100 µM
- TGI [16]: 95.8 µM
- TGI [17]: > 100 µM
- TGI [18]: > 100 µM
- TGI [19]: > 100 µM
- TGI [20]: 87.3 µM
- TGI [21]: > 100 µM
- TGI [22]: > 100 µM
- TGI [23]: > 100 µM
- TGI [24]: 62.2 µM
- TGI [25]: > 100 µM
- TGI [26]: > 100 µM
- TGI [27]: > 100 µM
- TGI [28]: 42.7 µM
- TGI [29]: > 100 µM
- TGI [30]: > 100 µM
- TGI [31]: 23 µM
- TGI [32]: 88.5 µM
- TGI [33]: > 100 µM
- TGI [34]: > 100 µM
- TGI [35]: > 100 µM
- TGI [36]: > 100 µM
- TGI [37]: 24.3 µM
- TGI [38]: > 100 µM
- TGI [39]: > 100 µM
- TGI [40]: 5.09 µM
- TGI [41]: > 100 µM
- TGI [42]: > 100 µM
- TGI [43]: > 100 µM
- TGI [44]: 34 µM
- TGI [45]: 62.6 µM
- TGI [46]: > 100 µM
- TGI [47]: 59.7 µM
- TGI [48]: > 100 µM
- TGI [49]: 67.9 µM
- TGI [50]: 35 µM
- TGI [51]: 85 µM
- TGI [52]: 80.2 µM
- TGI [53]: > 100 µM
- TGI [54]: > 100 µM
- TGI [55]: > 100 µM
- TGI [56]: > 100 µM
- TGI [57]: > 100 µM

Compound: COc1cc2c3cc1Oc1c(OC)c(OC)cc4c1C(Cc1ccc(O)c(c1)-c1cc(ccc1OC)CC3N(C)CC2)N(C)CC4 (stereo not given)
- TGI [1]: 23.4 µM
- TGI [2]: 43 µM
- TGI [3]: 63.7 µM
- TGI [4]: 30.6 µM
- TGI [5]: > 100 µM
- TGI [6]: 82.7 µM
- TGI [7]: 31.1 µM
- TGI [8]: 42.7 µM
- TGI [9]: > 100 µM
- TGI [10]: 50.4 µM
- TGI [12]: 51.5 µM
- TGI [13]: > 100 µM
- TGI [14]: 61.8 µM
- TGI [15]: 91.1 µM
- TGI [16]: 61.5 µM
- TGI [17]: 59.1 µM
- TGI [18]: 56.1 µM
- TGI [19]: > 100 µM
- TGI [20]: > 100 µM
- TGI [21]: 51.1 µM
- TGI [22]: 35.4 µM
- TGI [23]: > 100 µM
- TGI [24]: 28.4 µM
- TGI [25]: 53.7 µM
- TGI [26]: 72.3 µM
- TGI [27]: 39.4 µM
- TGI [29]: 41.4 µM
- TGI [30]: > 100 µM
- TGI [58]: 46.3 µM
- TGI [31]: 40.5 µM
- TGI [32]: 68.9 µM
- TGI [33]: 25.4 µM
- TGI [34]: 74.2 µM
- TGI [35]: 73.9 µM
- TGI [36]: > 100 µM
- TGI [37]: 29.2 µM
- TGI [38]: > 100 µM
- TGI [39]: 59.6 µM
- TGI [40]: 15.4 µM
- TGI [41]: 39.6 µM
- TGI [42]: 83 µM
- TGI [43]: > 100 µM
- TGI [44]: 15.5 µM
- TGI [45]: > 100 µM
- TGI [46]: 6.7 µM
- TGI [47]: 37.9 µM
- TGI [48]: > 100 µM
- TGI [49]: 49 µM
- TGI [50]: 57.2 µM
- TGI [51]: 51.2 µM
- TGI [52]: 59.3 µM
- TGI [53]: 37.6 µM
- TGI [54]: 46.3 µM
- TGI [55]: > 100 µM
- TGI [56]: > 100 µM
- TGI [57]: 56.8 µM

Compound: CNC(=O)OCC1=C(COC(=O)NC)C(C)N(c2ccccc2)C1 (stereo not given)
- TGI [1]: 67.3 µM
- TGI [2]: 70.6 µM
- TGI [3]: 98.4 µM
- TGI [4]: > 100 µM
- TGI [5]: > 100 µM
- TGI [6]: > 100 µM
- TGI [8]: > 100 µM
- TGI [9]: 92.7 µM
- TGI [10]: 53.7 µM
- TGI [11]: > 100 µM
- TGI [12]: > 100 µM
- TGI [13]: 48.5 µM
- TGI [14]: 72 µM
- TGI [15]: > 100 µM
- TGI [16]: 96.4 µM
- TGI [17]: > 100 µM
- TGI [18]: > 100 µM
- TGI [19]: > 100 µM
- TGI [20]: 77.3 µM
- TGI [21]: > 100 µM
- TGI [22]: > 100 µM
- TGI [23]: > 100 µM
- TGI [24]: 67.4 µM
- TGI [25]: > 100 µM
- TGI [26]: > 100 µM
- TGI [27]: > 100 µM
- TGI [28]: 83 µM
- TGI [29]: 97.4 µM
- TGI [30]: > 100 µM
- TGI [58]: 7.51 µM
- TGI [31]: 41.6 µM
- TGI [32]: > 100 µM
- TGI [33]: > 100 µM
- TGI [34]: 71.1 µM
- TGI [35]: > 100 µM
- TGI [36]: > 100 µM
- TGI [37]: > 100 µM
- TGI [38]: > 100 µM
- TGI [40]: 47 µM
- TGI [41]: 94.5 µM
- TGI [42]: > 100 µM
- TGI [43]: > 100 µM
- TGI [44]: 65.8 µM
- TGI [45]: > 100 µM
- TGI [46]: > 100 µM
- TGI [47]: 80.3 µM
- TGI [48]: > 100 µM
- TGI [49]: 58.3 µM
- TGI [50]: 68.8 µM
- TGI [51]: > 100 µM
- TGI [52]: > 100 µM
- TGI [53]: > 100 µM
- TGI [54]: > 100 µM
- TGI [55]: 91.9 µM
- TGI [56]: > 100 µM
- TGI [57]: > 100 µM
- TGI [59]: > 100 µM
